The structures appear in SMILES notation.

These results are taken from ChEMBL document CHEMBL3779816, “Microwave-assisted regioselective direct CH arylation of thiazole derivatives leading to increased 1receptor affinity” (Medchemcomm, 2016).

For experiment [1], the target named is Sigma non-opioid intracellular receptor 1 (Cavia porcellus, UniProt Q60492). As to the kind of experiment: Displacement of [3H](+)-pentazocine from sigma 1 receptor in guinea pig brain membranes after 150 mins by liquid scintillation spectrometry. It is filed as cell membranes, Membrane. (In a radioligand displacement assay an active substance lowers the binding of a labelled ligand.)
Sigma non-opioid intracellular receptor 1, sequence (Q60492 whole entry): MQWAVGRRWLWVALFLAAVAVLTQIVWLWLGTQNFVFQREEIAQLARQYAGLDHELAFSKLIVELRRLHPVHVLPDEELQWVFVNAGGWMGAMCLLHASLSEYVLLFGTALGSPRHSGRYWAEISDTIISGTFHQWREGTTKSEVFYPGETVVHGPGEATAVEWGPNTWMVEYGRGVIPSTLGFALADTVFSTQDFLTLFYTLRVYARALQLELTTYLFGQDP

Experiment [2] can be described thus: Displacement of [3H]di-o-tolylguanidine from sigma 2 receptor in rat liver membranes after 120 mins by liquid scintillation spectrometry in presence of (+)-pentazocine. It is filed as cell membranes, Membrane.
Another experiment is filed under the species Rattus norvegicus. As to the kind of experiment: Displacement of [3H]di-o-tolylguanidine from sigma 2 receptor in rat liver membranes at 1 uM after 120 mins by liquid scintillation spectrometry in presence of (+)-pentazocine. It is filed as cell membranes. Particulars: Membrane.

On to `Cc1ccc(-c2cnc(C3(O)CCN(Cc4ccccc4)CC3)s2)cc1`, for which the values for the Ki in experiment [1] and in experiment [2] were 7 nM and 457 nM, respectively.
The like results for `Cc1ccc(-c2csc(C3(O)CCN(Cc4ccccc4)CC3)n2)cc1` were, in that order, 3.8 nM and 154 nM.
Turning to `O=C(CCCN1CCC(O)(c2ccc(Cl)cc2)CC1)c1ccc(F)cc1` [HALOPERIDOL], the Ki (in general, a dissociation constant, usually derived from enzyme kinetics or from competition with a known ligand) in experiment [2] was found to be 22 nM.
Consider `Cc1ccccc1NC(=N)Nc1ccccc1C` [DITOLYLGUANIDINE], for which the Ki in experiment [2] was 107 nM.
For the compound `OC1(c2nccs2)CCN(Cc2ccccc2)CC1`, the Ki in experiment [1] stood at 33 nM; in experiment [2], 1800 nM.
As for `COC1Cc2cc(-c3ccc(C)cc3)sc2C2(CCN(Cc3ccccc3)CC2)O1` (stereo unspecified), the inhibition – broadly, the drop in the measured response relative to a control, in per cent – in the experiment listed under Rattus norvegicus worked out at 44%.
The same measure, in the same setting: next, `COC1Cc2ccsc2C2(CCN(Cc3ccccc3)CC2)O1` (stereo unspecified): 16%; `COC1Cc2c(-c3ccc(C)cc3)csc2C2(CCN(Cc3ccccc3)CC2)O1` (stereo unspecified): 34%.
